Test results from paper PMC4005661 (2014).

Test system: c-myc (DNA, G4) TGAGGGTGGGTAGGGTGGGTAA
Experiment: fluorescence light-up, plate reader
Conditions: 50 mM K+ (KCl); 50 mM Tris/HCl pH 7.5, room temperature; 1 µM strand, 0.5 µM ThT

Q: For `Cc1ccc2c(c1)sc(-c1ccc(N(C)C)cc1)[n+]2C`, which fluorescence fold increase is on record?
A: 14 fold
